From patent publication KR20170021349A, “다양한 질병의 치료를 위한 jnk 신호 전달 경로의 세포 투과성 펩타이드 억제자의 새로운 용도” (자이겐 인플라메이션 리미티드, priority 2014, dated 2017)

Test system: TC-3 cells
Test: IL-1-induced pancreatic beta-cell apoptosis
Type: cell-based
Conditions: 1 μM single addition, 15 days IL-1

## NH2-DQSRPVQPFLNLTTPRKPRPPRRRQRRKKRG-COOH (H-DQSRPVQPFLNLTTPRKPRPPRRRQRRKKRG-OH; also: D-amino acids (positions not given here)) [XG-102]
  long-term protection against IL-1-induced cell death: 보호를 부여할 수 있었으나
